From patent publication US9023821B2, “Use of MicroRNA for treating diseases associated with a dysfunction of the cilia in multiciliated epithelial cells” (Centre National de la Recherche Scientifique, priority 2009, dated 2015)

Columns and labels:
[1] = system: human airway epithelial cells (HAECs); assay: High-throughput sequencing (HTS) of miRNAs at four stages of differentiation of HAECs; conditions: for Modulation (ratio of the level of intensity of expression in log2 in two stages of differentiation) measured by high-throughput sequencing, D7 − D0 / Modulation (ratio of the level of intensity of expression in log2 in two stages of differentiation) measured by high-throughput sequencing, FC − D7 / Modulation (ratio of the level of intensity of expression in log2 in two stages of differentiation) measured by high-throughput sequencing, WD − D0 / Modulation (ratio of the level of intensity of expression in log2 in two stages of differentiation) measured by high-throughput sequencing, WD − FC / Level of intensity of expression in log2 measured by high-throughput sequencing, D0 / Level of intensity of expression in log2 measured by high-throughput sequencing, D7 / Level of intensity of expression in log2 measured by high-throughput sequencing, FC / Level of intensity of expression in log2 measured by high-throughput sequencing, WD: Table VI; for Abundance (%), D0: ALI-D0; for Abundance (%), D7: ALI-D7; for Abundance (%), FC: ALI-FC; for Abundance (%), WD: ALI-WD; for Level of intensity of expression in log2 At the differentiated stage (WD) measured in HTS: healthy human airway epithelial tissue; for Level of intensity of expression in log2 measured by high-throughput sequencing, D0: stage D0; for Level of intensity of expression in log2 measured by high-throughput sequencing, D7: stage D7; for Level of intensity of expression in log2 measured by high-throughput sequencing, FC: stage FC; for Level of intensity of expression in log2 At the differentiated stage (WD) measured in HTS / Level of intensity of expression in log2 measured by high-throughput sequencing, WD: stage WD
Method in brief: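 ALI cultures sampled at day 0, day 7, first-cilia stage (~14 d) and full differentiation (~21 d). Trizol lysis, column purification retaining small RNAs. Adaptor ligation, RT at 42° C for 30 min, PCR, gel selection of ~105-150 base products.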

[2] = system: human airway epithelial cells (HAECs); assay: Agilent miRNA chips, miRNA expression at four stages of differentiation of HAECs; conditions: for Modulation (ratio of the level of intensity of expression in log2 in two stages of differentiation) measured with the Agilent chips, D7 − D0 / Modulation (ratio of the level of intensity of expression in log2 in two stages of differentiation) measured with the Agilent chips, FC − D7 / Modulation (ratio of the level of intensity of expression in log2 in two stages of differentiation) measured with the Agilent chips, WD − D0 / Modulation (ratio of the level of intensity of expression in log2 in two stages of differentiation) measured with the Agilent chips, WD − FC / Level of intensity of expression in log2 measured with the Agilent chips, D0 / Level of intensity of expression in log2 measured with the Agilent chips, D7 / Level of intensity of expression in log2 measured with the Agilent chips, FC / Level of intensity of expression in log2 measured with the Agilent chips, WD: Table VI; for Level of intensity of expression in log2 measured with the Agilent chips, D0: stage D0; for Level of intensity of expression in log2 measured with the Agilent chips, D7: stage D7; for Level of intensity of expression in log2 measured with the Agilent chips, FC: stage FC; for Level of intensity of expression in log2 measured with the Agilent chips, WD: stage WD
Method in brief: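 To benchmark sequencing, the microRNAome was also profiled by hybridizing labelled RNA from identical patient samples to v2 arrays with miRBase v.12.0 human content (866 miRNAs) and 89 viral miRNAs.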

[3] = system: basal cells and pyramidal cells of the airway epithelium; assay: miRNA expression in sorted basal cells versus pyramidal cells (ciliated + secretory), HTS and Agilent chips; design: species or system human; conditions: for Modulation of expression of the miRNAs in pyramidal cells (323(−)) relative to basal cells 323(+): HTS and Agilent chips; for Intensity of the level of expression in log2 in pyramidal cells (323(−)): pyramidal cells (ciliated + secretory)
Method in brief: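 FACS on CD151 and tissue factor: double-positive = basal, double-negative = ciliated + mucus cells; DAPI, doublets, aggregates excluded; sort at 5000 events/s. Purity checked by cytometry/immunocytochemistry. miRNA by Agilent array or HTS on total RNA. Source: nasal polyps/conchae, 3 donors.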

| Substance | Modulation (ratio of the level of intensity of expression in log2 in two stages of differentiation) measured by high-throughput sequencing, D7 − D0 [1] [log2] | Modulation (ratio of the level of intensity of expression in log2 in two stages of differentiation) measured by high-throughput sequencing, FC − D7 [1] [log2] | Modulation (ratio of the level of intensity of expression in log2 in two stages of differentiation) measured by high-throughput sequencing, WD − D0 [1] [log2] | Modulation (ratio of the level of intensity of expression in log2 in two stages of differentiation) measured by high-throughput sequencing, WD − FC [1] [log2] | Level of intensity of expression in log2 At the differentiated stage (WD) measured in HTS [1] [log2] | Level of intensity of expression in log2 measured by high-throughput sequencing, D0 [1] [log2] | Level of intensity of expression in log2 measured by high-throughput sequencing, D7 [1] [log2] | Level of intensity of expression in log2 measured by high-throughput sequencing, FC [1] [log2] | Level of intensity of expression in log2 measured by high-throughput sequencing, WD [1] [log2] | Modulation (ratio of the level of intensity of expression in log2 in two stages of differentiation) measured with the Agilent chips, D7 − D0 [2] [log2] | Modulation (ratio of the level of intensity of expression in log2 in two stages of differentiation) measured with the Agilent chips, FC − D7 ([2]; FC − D7) [log2] | Modulation (ratio of the level of intensity of expression in log2 in two stages of differentiation) measured with the Agilent chips, WD − D0 [2] [log2] | Modulation (ratio of the level of intensity of expression in log2 in two stages of differentiation) measured with the Agilent chips, WD − FC ([2]; WD − FC) [log2] | Level of intensity of expression in log2 measured with the Agilent chips, D0 [2] [log2] | Level of intensity of expression in log2 measured with the Agilent chips, D7 [2] [log2] | Level of intensity of expression in log2 measured with the Agilent chips, FC [2] [log2] | Level of intensity of expression in log2 measured with the Agilent chips, WD [2] [log2] | Modulation of expression of the miRNAs in pyramidal cells (323(−)) relative to basal cells 323(+) [3] | Intensity of the level of expression in log2 in basal cells (323(+)) [3] [log2] | Intensity of the level of expression in log2 in pyramidal cells (323(−)) [3] [log2] | other results |
| --- | --- | --- | --- | --- | --- | --- | --- | --- | --- | --- | --- | --- | --- | --- | --- | --- | --- | --- | --- | --- | --- |
| hsa-miR-203: human miRNA, SEQ ID No. 19 (GUGAAAUGUUUAGGACCACUAG; expressed or natural sequence; listed as Homo sapiens) | 0.11 | −0.21 | 1.08 | 1.18 | 14.55 | 13.50 | 13.60 | 13.39 | 14.57 | 0.97 | −0.67 | 0.44 | 0.13 | 10.64 | 11.61 | 10.95 | 11.08 | −3.50 | 3.64 | 0.14 | Modulation (ratio of the level of intensity of expression in log2 in two stages of differentiation), D7 − D0 ([1]; HTS): 0.11 log2; Modulation (ratio of the level of intensity of expression in log2 in two stages of differentiation), FC − D7 ([1]; HTS): −0.21 log2; Modulation (ratio of the level of intensity of expression in log2 in two stages of differentiation), WD − FC ([1]; HTS): 1.18 log2; Abundance (%), D0 ([1]; HTS): 2.53%; Level of intensity of expression in log2, D0 ([1]; HTS, ALI-D0 (proliferation)): 13.49 log2; Abundance (%), D7 ([1]; HTS): 2.73%; Abundance (%), FC ([1]; HTS): 2.29%; Abundance (%), WD ([1]; HTS): 3.92% |
| hsa-miR-205: human miRNA, SEQ ID No. 20 (UCCUUCAUUCCACCGGAGUCUG; expressed or natural sequence; listed as Homo sapiens) | 0.62 | −1.12 | −0.06 | 0.44 | 15.24 | 14.61 | 15.23 | 14.11 | 14.55 | 1.00 | −0.72 | −0.11 | −0.39 | 13.18 | 14.18 | 13.46 | 13.07 | −7.00 | 12.44 | 5.44 | Modulation (ratio of the level of intensity of expression in log2 in two stages of differentiation), D7 − D0 ([1]; HTS): 0.62 log2; Modulation (ratio of the level of intensity of expression in log2 in two stages of differentiation), FC − D7 ([1]; HTS): −1.12 log2; Modulation (ratio of the level of intensity of expression in log2 in two stages of differentiation), WD − FC ([1]; HTS): 0.44 log2; Abundance (%), D0 ([1]; HTS): 5.48%; Abundance (%), D7 ([1]; HTS): 8.43%; Abundance (%), FC ([1]; HTS): 3.76%; Abundance (%), WD ([1]; HTS): 3.87%; cell type in which the miRNA is specifically expressed ([3]; sorted ciliated/pyramidal versus basal cells): more specific to the basal cells |
| hsa-miR-210: human miRNA, SEQ ID No. 22 | −0.96 | −0.74 | −1.80 | −0.10 | 9.29 | 12.29 | 11.33 | 10.60 | 10.49 | 0.18 | −0.63 | −0.56 | −0.11 | 9.08 | 9.25 | 8.63 | 8.52 | −2.03 | 6.60 | 4.57 | Modulation (ratio of the level of intensity of expression in log2 in two stages of differentiation), D7 − D0 ([1]; HTS): −0.96 log2; Modulation (ratio of the level of intensity of expression in log2 in two stages of differentiation), FC − D7 ([1]; HTS): −0.74 log2; Modulation (ratio of the level of intensity of expression in log2 in two stages of differentiation), WD − FC ([1]; HTS): −0.10 log2; Abundance (%), D0 ([1]; HTS): 1.10%; Abundance (%), D7 ([1]; HTS): 0.57%; Abundance (%), FC ([1]; HTS): 0.33%; Abundance (%), WD ([1]; HTS): 0.23% |
| hsa-miR-224: human miRNA, SEQ ID No. 24 (CAAGUCACUAGUGGUUCCGUU; expressed or natural sequence; listed as Homo sapiens) | 1.52 | −0.72 | 1.63 | 0.83 | 14.10 | 9.59 | 11.12 | 10.39 | 11.22 | 2.55 | −0.87 | 1.68 | 0.00 | 6.84 | 9.40 | 8.52 | 8.52 | −2.84 | 3.65 | 0.82 | Modulation (ratio of the level of intensity of expression in log2 at two stages of differentiation), FC − D7 ([2]; FC − D7, Agilent miRNA chips, Table V): −0.87 log2; Modulation (ratio of the level of intensity of expression in log2 at two stages of differentiation), WD − FC ([2]; WD − FC, Agilent miRNA chips, Table V): 0.00 log2 |
